Values quoted from earlier work in publication PMC7153166 (Elektrophysiologie, 2018).

How the values were obtained:
Format in all cases: cell-based
P2X1-Rezeptor = biological target: T1, P2X1-Rezeptor (Rattus norvegicus, UniProt P47824); assay: two-electrode voltage clamp, Xenopus oocytes
T1 sequence (P47824 1-399): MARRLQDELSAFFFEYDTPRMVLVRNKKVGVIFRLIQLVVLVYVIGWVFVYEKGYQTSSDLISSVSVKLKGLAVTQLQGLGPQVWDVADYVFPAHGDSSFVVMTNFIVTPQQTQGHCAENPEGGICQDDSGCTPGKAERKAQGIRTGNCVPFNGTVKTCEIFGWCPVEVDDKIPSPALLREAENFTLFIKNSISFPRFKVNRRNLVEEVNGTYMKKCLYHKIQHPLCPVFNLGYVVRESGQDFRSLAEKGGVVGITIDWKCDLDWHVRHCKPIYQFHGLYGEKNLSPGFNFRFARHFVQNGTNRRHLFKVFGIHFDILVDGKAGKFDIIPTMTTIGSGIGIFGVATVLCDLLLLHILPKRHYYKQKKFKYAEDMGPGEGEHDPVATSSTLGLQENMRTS

P2X2-Rezeptor = biological target: T2, P2X2-Rezeptor (Rattus norvegicus, UniProt P49653); assay: two-electrode voltage clamp, Xenopus oocytes; conditions: agonist
T2 sequence (P49653 1-472): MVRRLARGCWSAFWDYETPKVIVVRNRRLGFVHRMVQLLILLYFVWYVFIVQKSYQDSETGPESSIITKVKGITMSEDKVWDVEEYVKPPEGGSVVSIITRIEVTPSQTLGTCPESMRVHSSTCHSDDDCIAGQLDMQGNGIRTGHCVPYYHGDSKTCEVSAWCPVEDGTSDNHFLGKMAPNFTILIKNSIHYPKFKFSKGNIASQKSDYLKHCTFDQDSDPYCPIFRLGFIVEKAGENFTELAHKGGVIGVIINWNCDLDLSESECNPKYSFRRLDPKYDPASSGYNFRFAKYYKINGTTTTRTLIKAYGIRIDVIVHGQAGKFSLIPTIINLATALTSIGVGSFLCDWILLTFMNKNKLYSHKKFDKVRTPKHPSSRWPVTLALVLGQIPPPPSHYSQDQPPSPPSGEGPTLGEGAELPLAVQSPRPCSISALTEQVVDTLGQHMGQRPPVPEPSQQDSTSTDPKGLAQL

3a-Protein = 3a-Protein (Severe acute respiratory syndrome-related coronavirus, UniProt P59632)
3a-Protein, sequence (P59632 whole entry, looked up): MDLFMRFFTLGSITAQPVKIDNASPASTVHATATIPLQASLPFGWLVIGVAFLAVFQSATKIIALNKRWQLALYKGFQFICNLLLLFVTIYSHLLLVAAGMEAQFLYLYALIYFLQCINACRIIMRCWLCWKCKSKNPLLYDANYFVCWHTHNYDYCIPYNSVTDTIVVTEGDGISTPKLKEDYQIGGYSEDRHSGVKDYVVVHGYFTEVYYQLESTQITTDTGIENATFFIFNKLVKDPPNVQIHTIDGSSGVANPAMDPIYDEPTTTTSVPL

Compound | EC50 (P2X1-Rezeptor) [µM] | EC50 (P2X2-Rezeptor) [µM] | IC50 (3a-Protein) [µM]
Nc1ncnc2c1ncn2[C@@H]1O[C@H](COP(=O)(O)OP(=O)(O)OP(=O)(O)O)[C@@H](O)[C@H]1O [ATP] | 0.6 | ~30 | 
Cc1cc(O)c2c(c1)C(=O)c1cc(O)cc(O)c1C2=O [Emodin, 1,3,8-Trihydroxcy-6-methylanthracen-9,10-dion] |  |  | 20
O=c1c(O[C@@H]2O[C@@H](CO)[C@H](O)[C@H]2O)c(-c2ccc(O)cc2)oc2cc(O)cc(O)c12 [Juglanin] |  |  | ~2
